In patent US20200147243A1, “LIGAND COMPOUND OF ALPHA7 NICOTINIC ACETYLCHOLINE RECEPTOR AND APPLICATION THEREOF” (BEIJING NORMAL UNIVERSITY, priority 2017, published 2020):
Where “and” joins values, the source holds several entries; their conditions need not be identical. Identical values can stand only once.

What was measured:
[1] = In vivo distribution experiment in animals; conditions: for brain/blood ratio / Absorption Amount, blood / Absorption Amount, bone / Absorption Amount, brain / Absorption Amount, heart / Absorption Amount, kidney / Absorption Amount, liver / Absorption Amount, lung / Absorption Amount, muscle / Absorption Amount, spleen: female Kunming mice; for Absorption Amount, blood / Absorption Amount, bone / Absorption Amount, brain / Absorption Amount, heart / Absorption Amount, kidney / Absorption Amount, liver / Absorption Amount, lung / Absorption Amount, muscle / Absorption Amount, spleen: tail vein
[2] = biological target: T1, 5-hydroxytryptamine receptor (Mus musculus, UniProt P23979); assay: Selective experiment in mouse brain, ondanstron pre-injection; assay type: in vivo, Kunming mice; conditions: 2 mg/kg ondanstron s.c. 10 min in advance, 60 min after administration
T1 construct: from tissue
T1 sequence (P23979 24-489): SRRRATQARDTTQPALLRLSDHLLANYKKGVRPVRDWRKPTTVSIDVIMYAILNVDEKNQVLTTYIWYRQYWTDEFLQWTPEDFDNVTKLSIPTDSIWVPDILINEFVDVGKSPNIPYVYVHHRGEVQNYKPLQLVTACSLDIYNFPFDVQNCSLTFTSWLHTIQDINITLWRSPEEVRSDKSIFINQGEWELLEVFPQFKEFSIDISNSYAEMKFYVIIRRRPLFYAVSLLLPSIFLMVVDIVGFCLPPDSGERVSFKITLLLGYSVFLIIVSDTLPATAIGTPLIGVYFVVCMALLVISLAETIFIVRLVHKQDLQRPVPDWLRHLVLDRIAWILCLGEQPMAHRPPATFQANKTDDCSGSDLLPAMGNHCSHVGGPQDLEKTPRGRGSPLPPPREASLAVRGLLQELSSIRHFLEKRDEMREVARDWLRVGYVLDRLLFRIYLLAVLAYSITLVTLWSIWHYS
Description: (§1) The selectivity of radioligand for α4β2 nAChR was explored by subcutaneously injecting 1 mg/kg of cytisine (0.1 mL, with an equal volume of normal saline and 1,2-propanediol as solvents) 5 min in advance, whereas the selectivity for the 5-hydroxytryptamine receptor was explored by subcutaneously injecting 2 mg/kg of ondanstron (0.1 mL, with saline:DMSO=5:1 (V:V) as solvents) 10 min in advance. In the experiment, two groups of mice (n=5, Kunming females, 28-30 g) were injected with 0.1 mL (60 μCi) of [^18F]

α4β2 nAChR = biological target: T2, α4β2 nAChR (Mus musculus, UniProt O70174+Q9ERK7); assay: Selective experiment in mouse brain, cytisine pre-injection; assay type: in vivo, Kunming mice; conditions: 1 mg/kg cytisine s.c. 5 min in advance, 60 min after administration
T2 construct: from tissue
T2 sequence (O70174 31-629): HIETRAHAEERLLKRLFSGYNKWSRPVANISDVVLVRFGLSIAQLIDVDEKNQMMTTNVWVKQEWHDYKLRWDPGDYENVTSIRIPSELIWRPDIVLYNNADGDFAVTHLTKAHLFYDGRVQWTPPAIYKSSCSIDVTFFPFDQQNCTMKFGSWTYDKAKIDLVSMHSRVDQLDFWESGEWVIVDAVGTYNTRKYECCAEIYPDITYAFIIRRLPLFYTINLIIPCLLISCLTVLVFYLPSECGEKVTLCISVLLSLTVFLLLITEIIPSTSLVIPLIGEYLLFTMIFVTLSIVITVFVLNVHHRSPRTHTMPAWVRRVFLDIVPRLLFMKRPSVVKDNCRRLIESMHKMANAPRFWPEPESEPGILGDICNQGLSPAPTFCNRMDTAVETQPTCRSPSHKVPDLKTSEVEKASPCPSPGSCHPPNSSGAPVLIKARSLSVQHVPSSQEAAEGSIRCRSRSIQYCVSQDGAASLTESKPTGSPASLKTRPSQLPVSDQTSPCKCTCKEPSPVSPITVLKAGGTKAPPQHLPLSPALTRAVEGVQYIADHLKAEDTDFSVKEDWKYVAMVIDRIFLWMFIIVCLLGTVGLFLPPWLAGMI
T2 sequence (Q9ERK7 26-501): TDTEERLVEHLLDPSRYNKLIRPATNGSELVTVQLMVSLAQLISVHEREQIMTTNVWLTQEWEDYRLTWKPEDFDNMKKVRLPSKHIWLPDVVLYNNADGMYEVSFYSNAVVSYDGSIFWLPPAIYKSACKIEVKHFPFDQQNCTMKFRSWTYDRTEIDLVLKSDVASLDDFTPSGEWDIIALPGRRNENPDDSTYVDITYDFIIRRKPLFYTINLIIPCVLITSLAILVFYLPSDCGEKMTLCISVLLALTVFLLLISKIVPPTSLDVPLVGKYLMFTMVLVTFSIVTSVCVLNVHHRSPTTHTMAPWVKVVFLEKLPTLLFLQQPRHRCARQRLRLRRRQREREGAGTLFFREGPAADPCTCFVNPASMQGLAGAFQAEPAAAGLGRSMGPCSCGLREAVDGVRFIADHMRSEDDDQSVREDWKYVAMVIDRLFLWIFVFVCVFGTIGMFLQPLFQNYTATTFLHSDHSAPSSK
Description: as §1

[3] = Lipid water partition coefficient (n-octanol / PBS pH 7.4); assay type: physicochemical; conditions: read-out: lipid water partition coefficient log P
[4] = Experiment of brain region distribution; conditions: for Absorption, brain residual / Absorption, cerebellum / Absorption, corpus striatum / Absorption, cortex / Absorption, hippocampus / Absorption, superior and inferior colliculus / Absorption, thalamus: tail vein, female Kunming mice; for Tissue/cerebellum Ratio, corpus striatum / Tissue/cerebellum Ratio, cortex / Tissue/cerebellum Ratio, hippocampus / Tissue/cerebellum Ratio, superior and inferior colliculus / Tissue/cerebellum Ratio, thalamus: mouse brain

## O=C1c2cc(N3CCN4CCC3CC4)ccc2-c2cccc([18F])c21 [[^18F] II-15]
[1]; 5-90 min, mice
  in vivo defluorination phenomenon (bone absorption): relatively weaker
[1]; 5 min
  brain/blood ratio: 6.23
  Absorption Amount, blood: 1.43 ± 0.06 % ID/g wet weight
  Absorption Amount, bone: 3.02 ± 0.11 % ID/g wet weight
  Absorption Amount, brain: 8.98±0.41 % ID/g wet weight
  Absorption Amount, heart: 8.37 ± 0.14 % ID/g wet weight
  Absorption Amount, kidney: 15.92 ± 0.24 % ID/g wet weight
  Absorption Amount, liver: 8.19 ± 1.19 % ID/g wet weight
  Absorption Amount, lung: 70.52 ± 7.86 % ID/g wet weight
  Absorption Amount, muscle: 5.51 ± 0.65 % ID/g wet weight
  Absorption Amount, spleen: 7.72 ± 0.65 % ID/g wet weight
[1]; 15 min
  brain/blood ratio: 9.57 and 9.35
  Absorption Amount, blood: 1.24 ± 0.16 % ID/g wet weight
  Absorption Amount, bone: 4.55 ± 0.68 % ID/g wet weight
  Absorption Amount, brain: 11.60±0.14 % ID/g wet weight
  Absorption Amount, heart: 4.45 ± 0.62 % ID/g wet weight
  Absorption Amount, kidney: 11.54 ± 0.79 % ID/g wet weight
  Absorption Amount, liver: 12.28 ± 1.96 % ID/g wet weight
  Absorption Amount, lung: 20.23 ± 1.51 % ID/g wet weight
  Absorption Amount, muscle: 3.48 ± 0.40 % ID/g wet weight
  Absorption Amount, spleen: 11.58 ± 0.92 % ID/g wet weight
[1]; 30 min
  brain/blood ratio: 9.57
  Absorption Amount, blood: 1.03 ± 0.07 % ID/g wet weight
  Absorption Amount, bone: 4.84 ± 0.18 % ID/g wet weight
  Absorption Amount, brain: 9.86 ± 0.05 % ID/g wet weight
  Absorption Amount, heart: 3.56 ± 0.31 % ID/g wet weight
  Absorption Amount, kidney: 8.06 ± 0.69 % ID/g wet weight
  Absorption Amount, liver: 13.74 ± 1.36 % ID/g wet weight
  Absorption Amount, lung: 18.30 ± 1.56 % ID/g wet weight
  Absorption Amount, muscle: 2.36 ± 0.30 % ID/g wet weight
  Absorption Amount, spleen: 8.67 ± 0.48 % ID/g wet weight
[1]; 60 min
  brain/blood ratio: 8.03
  Absorption Amount, blood: 0.68 ± 0.01 % ID/g wet weight
  Absorption Amount, bone: 7.27 ± 1.31 % ID/g wet weight
  Absorption Amount, brain: 5.46±0.27 % ID/g wet weight
  Absorption Amount, heart: 2.19 ± 0.16 % ID/g wet weight
  Absorption Amount, kidney: 4.85 ± 0.443 % ID/g wet weight
  Absorption Amount, liver: 9.74 ± 0.07 % ID/g wet weight
  Absorption Amount, lung: 7.64 ± 0.99 % ID/g wet weight
  Absorption Amount, muscle: 1.79 ± 0.06 % ID/g wet weight
  Absorption Amount, spleen: 4.08 ± 0.38 % ID/g wet weight
[1]; 90 min
  brain/blood ratio: 6.98
  Absorption Amount, blood: 0.52 ± 0.06 % ID/g wet weight
  Absorption Amount, bone: 7.65 ± 0.52 % ID/g wet weight
  Absorption Amount, brain: 3.63±0.25 % ID/g wet weight
  Absorption Amount, heart: 1.71 ± 0.13 % ID/g wet weight
  Absorption Amount, kidney: 4.26 ± 0.19 % ID/g wet weight
  Absorption Amount, liver: 7.46 ± 0.19 % ID/g wet weight
  Absorption Amount, lung: 4.99 ± 0.45 % ID/g wet weight
  Absorption Amount, muscle: 1.32 ± 0.11 % ID/g wet weight
  Absorption Amount, spleen: 2.97 ± 0.25 % ID/g wet weight
[2]
  difference in brain uptake between experimental group and control group: no significant difference
α4β2 nAChR
  difference in brain uptake between experimental group and control group: no significant difference
[3]
  logP: 1.64 ± 0.12
[4]; 5 min
  Absorption, brain residual: 6.03 ± 0.23 % ID/g wet weight
  Absorption, cerebellum: 5.83 ± 0.01 % ID/g wet weight
  Tissue/cerebellum Ratio, corpus striatum: 1.20
  Absorption, corpus striatum: 6.99 ± 0.31 % ID/g wet weight
  Tissue/cerebellum Ratio, cortex: 1.24
  Absorption, cortex: 7.24 ± 0.33 % ID/g wet weight
  Tissue/cerebellum Ratio, hippocampus: 0.99
  Absorption, hippocampus: 5.77 ± 0.17 % ID/g wet weight
  Tissue/cerebellum Ratio, superior and inferior colliculus: 1.08
  Absorption, superior and inferior colliculus: 6.32 ± 0.67 % ID/g wet weight
  Tissue/cerebellum Ratio, thalamus: 0.98
  Absorption, thalamus: 5.74 ± 0.69 % ID/g wet weight
[4]; 15 min
  Absorption, brain residual: 5.58 ± 0.50 % ID/g wet weight
  Absorption, cerebellum: 5.10 ± 0.35 % ID/g wet weight
  Tissue/cerebellum Ratio, corpus striatum: 1.28
  Absorption, corpus striatum: 6.55 ± 0.25 % ID/g wet weight
  Tissue/cerebellum Ratio, cortex: 1.63
  Absorption, cortex: 8.31 ± 0.22 % ID/g wet weight
  Tissue/cerebellum Ratio, hippocampus: 1.20
  Absorption, hippocampus: 6.12 ± 0.40 % ID/g wet weight
  Tissue/cerebellum Ratio, superior and inferior colliculus: 1.28
  Absorption, superior and inferior colliculus: 6.53 ± 0.58 % ID/g wet weight
  Tissue/cerebellum Ratio, thalamus: 1.11
  Absorption, thalamus: 5.66 ± 0.34 % ID/g wet weight
[4]; 30 min
  Absorption, brain residual: 5.25 ± 0.80 % ID/g wet weight
  Absorption, cerebellum: 4.53 ± 0.14 % ID/g wet weight
  Tissue/cerebellum Ratio, corpus striatum: 1.85
  Absorption, corpus striatum: 8.37±0.27 % ID/g wet weight
  Tissue/cerebellum Ratio, cortex: 2.07
  Absorption, cortex: 9.39±0.24 % ID/g wet weight
  Tissue/cerebellum Ratio, hippocampus: 1.39
  Absorption, hippocampus: 6.31±0.82 % ID/g wet weight
  Tissue/cerebellum Ratio, superior and inferior colliculus: 1.31
  Absorption, superior and inferior colliculus: 5.93 ± 0.52 % ID/g wet weight
  Tissue/cerebellum Ratio, thalamus: 1.28
  Absorption, thalamus: 5.80 ± 0.47 % ID/g wet weight
[4]; 60 min
  Absorption, brain residual: 4.21 ± 0.22 % ID/g wet weight
  Absorption, cerebellum: 2.69 ± 0.10 % ID/g wet weight
  Tissue/cerebellum Ratio, corpus striatum: 1.87
  Absorption, corpus striatum: 5.01 ± 0.31 % ID/g wet weight
  Tissue/cerebellum Ratio, cortex: 2.29
  Absorption, cortex: 6.14 ± 0.34 % ID/g wet weight
  Tissue/cerebellum Ratio, hippocampus: 2.36
  Absorption, hippocampus: 6.34 ± 0.72 % ID/g wet weight
  Tissue/cerebellum Ratio, superior and inferior colliculus: 1.45
  Absorption, superior and inferior colliculus: 3.90 ± 0.36 % ID/g wet weight
  Tissue/cerebellum Ratio, thalamus: 1.82
  Absorption, thalamus: 4.89 ± 0.04 % ID/g wet weight
[4]; 90 min
  Absorption, brain residual: 2.32 ± 0.26 % ID/g wet weight
  Absorption, cerebellum: 1.53 ± 0.10 % ID/g wet weight
  Tissue/cerebellum Ratio, corpus striatum: 2.9 and 2.86
  Absorption, corpus striatum: 4.37 ± 0.18 % ID/g wet weight
  Tissue/cerebellum Ratio, cortex: 2.5 and 2.47
  Absorption, cortex: 3.77 ± 0.95 % ID/g wet weight
  Tissue/cerebellum Ratio, hippocampus: 3.6 and 3.63
  Absorption, hippocampus: 5.54 ± 0.64 % ID/g wet weight
  Tissue/cerebellum Ratio, superior and inferior colliculus: 1.86
  Absorption, superior and inferior colliculus: 2.85 ± 0.10 % ID/g wet weight
  Tissue/cerebellum Ratio, thalamus: 2.10
  Absorption, thalamus: 3.19 ± 0.26 % ID/g wet weight
